Assay type in all cases: cell-based
Experiment [1] deals with MDA-MB-435. Briefly: Antiproliferative Activity In Cell Line MDA-MB-435 (MTT). The conditions noted are these: Homo sapiens, average of at least three separate experiments. As to the method: (§1) The estrogen receptor negative epithelial breast carcinoma line (MDA-MB-435) was purchased from American Type Cell Culture Collection (ATCC; Rockville, Md.) and was grown in the medium recommended by ATCC. For analysis of the effect of the test compounds on growth of these cells, the cells were plated at 2000 cells per well in a 96-well tissue culture plate ("test plate"), and were incubated overnight at 37° C. with 5% CO2. The next day, the test compounds were dissolved in 100% dimethyl sulfoxide (DMSO) to yield a 10 mM stock solution. Each compound was diluted with sterile distilled water to 1 mM and then was added to triplicate wells of a 96-well "master plate" containing medium in a sufficient quantity to yield a final concentration of 40 μM. The compounds were serially diluted in medium in the "master plate." One-fourth final volume of the diluted compounds was transferred to duplicate "test plates." DMSO was added to a row of "control cells" such that; the final concentration of DMSO in each well was 0.1%. The "test plates" were returned to the incubator, and 3 days post addition of test compound, one "test plate" was analyzed as described below. Similarly, 5 days after addition of test compound, the second "test plate" also was analyzed as described below.
(§2) 3-(4,5-dimethylthiazole-2-yl)-2,5-diphenyl-2H-tetrazolium bromide (thiazolyl blue; MTT) was added to each well to yield a final concentration of 1 mg/ml. The plate was then incubated at 37° C. for 3 hours. The MTT-containing medium was then removed and 50 μl 100% ethanol was added to each well to dissolve the resulting formazan metabolite. […] Absorbencies were read in a microtiter plate reader (Molecular Dynamics) at a wavelength of 570 nm with a 650 nm reference. Percent inhibition was calculated by subtracting the blank from all wells, then subtracting the division of the average absorbance of each test triplicate by the average of the controls from 1.00. Inhibitory concentrations (IC50 and IC90) were determined from the linear regression of a plot of the logarithm of the concentration versus the percent inhibition.

Experiment [2] relates to HCT-116. In words: Antiproliferative Activity In Cell Line HCT-116 (MTT). The conditions noted are these: Homo sapiens, 96 h, 4 days post addition, average of at least three separate experiments. As to the method:
[The procedure below names another cell line; the source says it served here with some conditions changed.] as §1
as §2, with “inhibition. […]” for “inhibition.”

Experiment [3] has as its system SW480. In words: Antiproliferative Activity In Cell Line SW480 (MTT). The conditions noted are these: Homo sapiens, 144 h, 6 days post addition, average of at least three separate experiments. As to the method: [The procedure below names another cell line; the source says it served here with some conditions changed.] as §1
as §2, with “inhibition. […]” for “inhibition.”

Experiment [4] concerns MDA-MB-435 cells. In words: Effect Of Test Compounds On Cell Cycle (propidium iodide, FACS). The conditions noted are these: for % Of Cells In Each Cell Cycle Phase: G1 / % Of Cells In Each Cell Cycle Phase: G2/M / % Of Cells In Each Cell Cycle Phase: S: day 1 post addition; for effect on cell cycle (in words): statement in words, summarizing Tables I-IV. As to the method:
For analysis of the effect of the compounds on cell cycle progression, MDA-MB-435 cells (ATCC; Rockville, Md.) were plated at 1×10^6 cells/10 mls per 10 cm dish in the following growth medium: RPMI 1640+10% Heat-Inactivated Fetal Bovine Serum, 2 mM L-glutamine and 50 U/ml pen-strep (all from GIBCO/BRL, Gaithersburg, Md.). The cells were incubated overnight at 37° C. with 5% CO2. The next day, 10 μl of each of the compounds to be tested, in a 100% DMSO solution, was added to individual dishes to obtain /1000× final concentration of the stock solution. In addition, 10 μl 100% DMSO was added to a control dish. The final concentration of DMSO in all plates, including the control, was 0.1%. The plates were returned to the incubator.
Thereafter, at various periods of time, the medium in each plate was removed to a 50 ml centrifuge tube. The cell layer remaining in the dish was then washed with 5 ml of phosphate buffered saline (PBS; GIBCO/BRL). The PBS was removed and combined with the medium in the appropriate tube. The cells were trypsinized for 5 minutes at 37° C., and the solution was collected and combined with the medium and PBS in the appropriate tubes. The tubes were then centrifuged for 5 minutes at 1200 rpm. The cells were fixed by removing the supernatant, tapping the tube to distribute the pellet, then adding 5 mls of cold 70% ethanol while vortexing gently. The cells were then stored at -20° C. for>24 hours.
The cell-containing tubes were taken out of freezer and allowed to sit at room temperature for 20-30 minutes. The tubes were centrifuged at 3000 rpm for 5 minutes. The supernatant was removed, the pellets were washed with 5 ml PBS, and the tubes were centrifuged as above. Subsequently, the supernatant was removed, and the pellet was resuspended in 0.5 ml PBS. Thereafter, 0.5 ml RNAse A (1 mg/ml in PBS) was added to each tube, and the tubes were incubated at 37° C. for 15 minutes. 100 μl propidium iodide (Sigma, St. Louis, Mo.) (1 mg/ml in PBS) was added to each tube, and the tubes were then incubated at room temperature for 2-3 minutes. Each resulting solution was passed through a filter cap tube (Becton Dickinson, San Jose, Calif., #2235).
Samples were read in a FACSort machine (Becton-Dickinson) using the manufacturer's CellQUEST program, and analyzed with the manufacturer is ModFIT software. This measurement provides an indication of the percent of cells in each of the following phases: G0/G1, DNA synthesis (S) and G2/M phases.
The results of a cell cycle progression experiment analyzed at day 1 post addition of test compounds I, II and III are summarized below in Table IV.

Molecules are shown by their SMILES.

Here are results for 3 molecules from patent US6048887A, “Substituted pyrroles” (Hoffmann-La Roche Inc., priority 1999, dated 2000).

The term IC50 denotes the midpoint of a concentration-inhibition curve.

`Cn1cc(C2=C(c3cn(CO)c4ccccc34)C(=O)NC2=O)c2ccc([N+](=O)[O-])cc21` [Compound II, 3-(1-Hydroxymethyl-1H-indol-3-yl)-4-(1-methyl-6-nitro-1H-indol-3-yl)-pyrrole-2,5-dione]: the IC50 in experiment [1] turned out to be 50 nM; in experiment [2], 230 nM; in experiment [3] it was 220 nM. Also, the “% Of Cells In Each Cell Cycle Phase: G1” value amounted to 45.45% in experiment [4] (0.03 μM), 15.54% in experiment [4] (0.1 μM) and 1.11% in experiment [4] (0.3 μM). For the same molecule, the “% Of Cells In Each Cell Cycle Phase: G2/M” value in experiment [4] (0.03 μM) is given as 16.50%; in experiment [4] (0.1 μM) it was 60.40%; in experiment [4] (0.3 μM), 73.90%. The entries for the “% Of Cells In Each Cell Cycle Phase: S” value in experiment [4] (0.03 μM), in experiment [4] (0.1 μM) and in experiment [4] (0.3 μM) were 38.06%, 24.06% and 24.99%, respectively. Besides, in experiment [4], the “effect on cell cycle (in words)” value is reported as “cause an accumulation of cells in the G2/m phase of the cell cycle”.
For `Cn1cc(C2=C(c3c[nH]c4cc([N+](=O)[O-])ccc34)C(=O)NC2=O)c2ccccc21` [Compound III, 3-(1-Methyl-1H-indol-3-yl)-4-(6-nitro-1H-indol-3-yl)-pyrrole-2,5-dione], the IC50 in experiment [1] is 600 nM; in experiment [2], 1660 nM; in experiment [3], 1860 nM. Moreover, the entries for the “% Of Cells In Each Cell Cycle Phase: G1” value in experiment [4] (1 μM), in experiment [4] (3 μM) and in experiment [4] (10 μM) were 27.21%, 3.26% and 10.41%, respectively. In addition, the results for the “% Of Cells In Each Cell Cycle Phase: G2/M” value in experiment [4] (1 μM), in experiment [4] (3 μM) and in experiment [4] (10 μM) were 42.60%, 47.99% and 54.34%, respectively. For the same molecule, the entries for the “% Of Cells In Each Cell Cycle Phase: S” value in experiment [4] (1 μM), in experiment [4] (3 μM) and in experiment [4] (10 μM) were 30.19%, 48.75% and 35.25%, respectively. In addition, in experiment [4], the “effect on cell cycle (in words)” value is “cause an accumulation of cells in the G2/m phase of the cell cycle”.
For the molecule `Cn1cc(C2=C(c3c[nH]c4ccccc34)C(=O)NC2=O)c2ccc([N+](=O)[O-])cc21` [Compound I, 3-(1H-Indol-3-yl)-4-(1-methyl-6-nitro-1H-indol-3-yl)-pyrrole-2,5-dione], the IC50 in experiment [1] was determined as 30 nM; in experiment [2], 170 nM; in experiment [3], 200 nM. Also, the “% Of Cells In Each Cell Cycle Phase: G1” value in experiment [4] (0.01 μM) amounted to 44.95%; in experiment [4] (0.03 μM), 45.30%; in experiment [4] (0.1 μM), 8.27%. Moreover, the “% Of Cells In Each Cell Cycle Phase: G2/M” value in experiment [4] (0.01 μM) worked out at 14.00%; in experiment [4] (0.03 μM) it was 20.03%; in experiment [4] (0.1 μM) it was 66.52%. Besides, the “% Of Cells In Each Cell Cycle Phase: S” value in experiment [4] (0.01 μM) was found to be 41.04%; in experiment [4] (0.03 μM), 34.67%; in experiment [4] (0.1 μM), 25.21%. Moreover, the “effect on cell cycle (in words)” value in experiment [4] is “cause an accumulation of cells in the G2/m phase of the cell cycle”.
